Results reported in patent US20080051365A1, “Treatment of Inflammation” (CAN-FITE BIOPHARMA LTD., priority 2004, published 2008).

Experiments:
[1] = cited from earlier work
[2] = system: Adjuvant induced Arthritis (AIA) rats; assay: Adjuvant induced arthritis (AIA) in rats, arthritis clinical score; type: in vivo, rat; details: female Lewis rats, CF101 10 μg/kg orally twice daily from day 14, MTX 0.25 or 0.75 mg/kg intraperitoneally every 3 days from day 14, versus vehicle
Protocol: Female Lewis rats, aged 8-12 weeks were obtained from Harlan Laboratories (Jerusalem, Israel). Rats were maintained on a standardized pelleted diet and supplied with tap water. Experiments were performed in accordance with the guidelines established by the Institutional Animal Care and Use Committee at Can-Fite BioPharma, Petah Tikva, Israel. The rats were injected subcutaneously (SC) at the tail base with 100 μl of suspension composed of incomplete Freund's adjuvant (IFA) with 10 mg/ml heat killed Mycobacterium tuberculosis, (Mt) H37Ra, (Difco, Detroit, USA). Each group contained 10 animals.
Treatment with CF101 (10 μg/kg) was initiated on day 14 after vaccination and was orally administered by gavage, twice daily. Another group was treated with Methotrexate (MTX) (0.25, 0.75 mg/kg) intraperitoneally every 3 days, starting on day 14th after vaccination. The control group in each experiment received vehicle only (DMSO in a dilution corresponding to that of the drugs).
Clinical Disease Activity Score was assessed as follows: the animals were inspected every second day for clinical arthritis. […] The clinical score was calculated by adding the four individual legs' score. The inflammatory intensity was also determined in accordance with the increase in the rat hind paw's diameter, measured by caliper (Mitotoyo, Tokyo, Japan).

[3] = oral CF101, healthy young men; cited from earlier work

CNC(=O)[C@H]1OC(n2cnc3c(NCc4cccc(I)c4)ncnc32)[C@H](O)[C@@H]1O (stereo partly drawn) [CF101, 1-deoxy-1-[6-[[(3-iodophenyl)methyl]amino]-9H-purine-9-yl]-N-methyl-D-ribofuranuronamide]
half life in mice [1]: 1.5 h | disease severity evaluated by the arthritis clinical score [2]: significant decrease in disease severity | half life in human plasma [3]: 8 to 10 h

CN(Cc1cnc2nc(N)nc(N)c2n1)c1ccc(C(=O)N[C@@H](CCC(=O)O)C(=O)O)cc1 [MTX, Methotrexate, reference compound]
disease severity evaluated by the arthritis clinical score [2]: significant decrease in disease severity
